Experimental data published in PMC8421423, “Cellular model system to dissect the isoform-selectivity of Akt inhibitors” (Nature Communications, 2021).
Values joined by “and” are separate entries in the source; they are usually repeats but may differ in a detail not shown here. Equal entries are not always repeated. Where two headings read alike, the source gives them in different places.

How the values were obtained:
[1] = target: T1, Akt1 (Homo sapiens, UniProt P31749); test: STK HTRF KinEASE activity-based assay (IC50)
Description: The biochemical half maximal inhibitory concentrations (IC50) were determined with the STK HTRF KinEASE assay (Cisbio) according to the manufactor’s instructions. Briefly: 5 µL Kinase solution and 2.5 µL inhibitor solution (8% DMSO in HTRF buffer) were incubated for 1 h before the reaction was started by addition of 2.5 µL starting solution containing ATP and substrate peptide. […] After reaction completion (Akt1: 60 min, Akt2: 20 min, Akt3: 15 min), 10 µL of stop solution were added. […] The quotient of both intensities were recorded at eight different inhibitor concentrations and data fit to a Hill 4-parameter equation with Quattro software suite (Quattro Research GmbH, Martinsried, Germany). Each reaction was performed in duplicates and at least three independent determinations of each IC50 were made.

[2] = tested on: Ba/F3^myr-Akt2 cells; test: CellTiter-Glo cell viability assay; conditions: for cell viability: CTG
Description: (§1) On day 0, cells were plated into white 384-well cell culture plates (Greiner Bio-One) using a Multidrop reagent dispenser (Thermo Fisher Scientific) at cell numbers that ensure linear and optimal luminescent signal intensity (Ba/F3myr-Akt1: 600 cells/well, Ba/F3myr-Akt2: 800 cells/well, Ba/F3myr-Akt3: 800 cells/well). […] Cell viability was analyzed on day 4 using the CellTiter-Glo Assay (Promega) as per the manufacturer’s instructions. […] All experimental points were measured in duplicates for each plate and were replicated in at least three plates.

[3] = tested on: Ba/F3^myr-Akt3 cells; test: CellTiter-Glo cell viability assay; conditions: for cell viability: CTG
Description: as §1

[4] = target: T2, Akt3 (Homo sapiens, UniProt Q9Y243); test: Cellular thermal shift assay (CETSA) in PANC1 cells; assay type: cell-based; set-up: purchased ProQinase #1578-0000-1
Description: (§2) Cells were seeded into 100 mm tissue culture plates (Sarstedt) (PANC1: 10^6 cells). After 24 h incubation, cells were treated with 1 µM of inhibitors or DMSO and were incubated for 4.5 h. Cells were washed twice with ice-cold PBS and then suspended in 1 mL PBS. Cells were collected and separated into equal volumes (100 µL). The aliquots were treated individually with different temperatures for 3 min, followed by a 3 min incubation at room temperature. Cell lysis was initiated by adding 100 µL RIPA buffer and 2 freeze-thaw cycles in liquid nitrogen. The lysates were centrifuged at 21,130×g for 20 min at room temperature. The supernatants were transferred into fresh, pre-cooled microcentrifuge tubes, and analyzed by western blot analysis as described above.

[5] = CellTiter-Glo cell viability assay; assay type: cell-based, murine; conditions: mouse, parental Ba/F3 cells, CTG, parental, single replicates
[6] = tested on: parental Ba/F3 cells; test: CellTiter-Glo cell viability assay; assay type: cell-based, murine; conditions: for cell viability: CTG, parental
[7] = target: T3, Akt2 (Homo sapiens, UniProt P31751); test: STK HTRF KinEASE activity-based assay (IC50)
[8] = tested on: Ba/F3^myr-Akt1 cells; test: CellTiter-Glo cell viability assay; conditions: for cell viability: CTG
Description: as §1

[9] = tested on: pAkt2; test: Western blot analysis, PANC1 cells; assay type: cell-based, human; conditions: PANC1, 24-h treatment
Description: Cells were seeded into six-well tissue culture plates (Sarstedt) (BaF3 myr-Akt1/2/3: 10^6 cells/well, PANC1: 250.000 cells/well). […] Cell lysis was initiated by addition of 100 μL RIPA buffer (Cell Signaling Technology) per well supplemented with phosphatase and protease inhibitor cocktails (Sigma) followed by incubation on ice for 20 min. Cells were then harvested by scraping (PANC1) or centrifugation (BaF3). Whole cell lysates were cleared by centrifugation at 14,000×g/4 °C for 10 min and transferred into fresh, pre-cooled microcentrifuge tubes. Protein concentrations were determined using the Pierce BCA protein assay (Thermo) as per manufacturer’s instructions. Equal amounts of protein were separated by SDS-PAGE and transferred to Immobilon-FL PVDF membranes (Merck Millipore) using Pierce™ 1-step transfer buffer (Thermo) and the Pierce™ Power Blotter (Thermo). Membranes were washed for 5 min with ddH2O, blocked with Intercept®Blocking Buffer TBS (Li-Cor) for 1 h at room temperature, and then incubated with primary antibodies diluted in Intercept®Blocking Buffer TBS overnight at 4 °C with gentle agitation. On the next day, the membranes were washed three times with TBS-T (50 mM Tris, 150 mM NaCl, 0.05 % Tween 20, pH 7.4) for 5 min before being incubated with secondary antibodies diluted in Intercept®Blocking Buffer TBS for 1 h at room temperature with gentle agitation. Finally, the membranes were washed three times for 5 min with TBS-T and then scanned using an Odyssey®CLx imaging system (Li-Cor).

[10] = target: T2, Akt3; test: STK HTRF KinEASE activity-based assay (IC50)
[11] = target: T1, Akt1; test: Cellular thermal shift assay (CETSA) in PANC1 cells; assay type: cell-based; set-up: purchased ProQinase #1379-0000-2
Description: as §2

[12] = target: T3, Akt2; test: as above; assay type: cell-based; set-up: purchased Thermo Fisher Scientific #PV3184
Description: as §2

[13] = cell viability assay Ba/F3 myr-Akt cells, log units
[14] = CETSA PANC1, 0.3 µM, temperature 39.9
[15] = CETSA PANC1, 0.3 µM, temperature 43.5
[16] = CETSA PANC1, 0.3 µM, temperature 48.4
[17] = CETSA PANC1, 0.3 µM, temperature 53.8
[18] = CETSA PANC1, 0.3 µM, temperature 58.1
[19] = CETSA PANC1, 0.3 µM, temperature 61.4
[20] = CETSA PANC1, 0.3 µM, temperature 65.6
[21] = CETSA PANC1, 0.3 µM, temperature 70.9
[22] = CETSA PANC1, 0.3 µM, temperature 76
[23] = CETSA PANC1, 0.3 µM, temperature 79.9
[24] = CETSA PANC1, 1 µM, temperature 39.9
[25] = CETSA PANC1, 1 µM, temperature 43.5
[26] = CETSA PANC1, 1 µM, temperature 48.4
[27] = CETSA PANC1, 1 µM, temperature 53.8
[28] = CETSA PANC1, 1 µM, temperature 58.1
[29] = CETSA PANC1, 1 µM, temperature 61.4
[30] = CETSA PANC1, 1 µM, temperature 65.6
[31] = CETSA PANC1, 1 µM, temperature 70.9
[32] = CETSA PANC1, 1 µM, temperature 76
[33] = CETSA PANC1, 1 µM, temperature 79.9

T1 sequence (P31749 whole entry): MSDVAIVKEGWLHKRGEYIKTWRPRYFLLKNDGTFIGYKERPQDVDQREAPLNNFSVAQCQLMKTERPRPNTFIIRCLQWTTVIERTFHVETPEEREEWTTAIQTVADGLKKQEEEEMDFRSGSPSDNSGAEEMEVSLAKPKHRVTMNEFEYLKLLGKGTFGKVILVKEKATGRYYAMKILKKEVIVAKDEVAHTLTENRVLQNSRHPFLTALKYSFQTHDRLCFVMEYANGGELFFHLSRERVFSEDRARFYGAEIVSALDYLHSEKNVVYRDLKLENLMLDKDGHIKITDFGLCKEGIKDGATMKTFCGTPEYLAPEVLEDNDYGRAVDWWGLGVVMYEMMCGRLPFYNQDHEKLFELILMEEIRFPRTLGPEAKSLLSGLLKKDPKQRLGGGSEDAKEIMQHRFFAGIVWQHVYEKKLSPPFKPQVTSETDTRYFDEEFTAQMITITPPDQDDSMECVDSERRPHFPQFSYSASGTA
T3 sequence (P31751 whole entry): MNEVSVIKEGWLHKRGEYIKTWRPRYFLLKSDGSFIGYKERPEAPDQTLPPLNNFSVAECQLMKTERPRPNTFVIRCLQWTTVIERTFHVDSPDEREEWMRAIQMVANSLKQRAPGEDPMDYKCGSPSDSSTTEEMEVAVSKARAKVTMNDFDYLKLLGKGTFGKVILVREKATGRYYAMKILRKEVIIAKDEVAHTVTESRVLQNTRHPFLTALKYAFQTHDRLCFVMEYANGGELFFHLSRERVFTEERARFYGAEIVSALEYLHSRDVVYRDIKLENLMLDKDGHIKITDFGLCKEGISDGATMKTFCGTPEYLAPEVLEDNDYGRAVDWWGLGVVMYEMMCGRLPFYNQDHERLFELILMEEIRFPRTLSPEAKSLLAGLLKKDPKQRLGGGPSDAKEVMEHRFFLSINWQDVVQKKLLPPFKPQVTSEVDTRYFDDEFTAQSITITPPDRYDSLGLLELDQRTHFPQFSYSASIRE
T2 sequence (Q9Y243 whole entry): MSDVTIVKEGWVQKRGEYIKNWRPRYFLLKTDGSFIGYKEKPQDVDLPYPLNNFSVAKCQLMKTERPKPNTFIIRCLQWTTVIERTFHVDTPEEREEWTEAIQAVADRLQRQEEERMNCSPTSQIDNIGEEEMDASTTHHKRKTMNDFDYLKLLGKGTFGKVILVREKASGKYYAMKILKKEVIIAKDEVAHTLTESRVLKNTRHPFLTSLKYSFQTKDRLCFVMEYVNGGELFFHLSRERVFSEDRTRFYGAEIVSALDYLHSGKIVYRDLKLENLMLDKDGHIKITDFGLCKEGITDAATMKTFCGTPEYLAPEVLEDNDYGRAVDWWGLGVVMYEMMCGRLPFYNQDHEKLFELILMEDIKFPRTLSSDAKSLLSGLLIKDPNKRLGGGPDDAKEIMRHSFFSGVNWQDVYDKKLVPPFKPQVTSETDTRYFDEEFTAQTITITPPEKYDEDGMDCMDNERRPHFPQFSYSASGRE

With `C=CC(=O)Nc1ccc2[nH]c(=O)n(C3CCN(Cc4ccc(-c5ncccc5-c5ccccc5)cc4)CC3)c2c1` [compound 1] the IC50 ([1]; HTRF IC50 Akt1, individual determinations, single replicates) was 43.9 nM and 72.2 nM and 42.8 nM, the IC50 ([1]; IC50 Akt1, HTRF, ATP at KM, 1 h preincubation) was 53 ± 13 nM and the “Log ratio IC50 [Akt] / IC50 [Akt], Akt1 / Akt2” value ([1]; biochemical activity based assay, log units) was -1.05. The cell viability ([2]; myr-Akt2, 0.1 nM, single replicates, 0.0001 µM) was 96.6 % of control and 111.8 % of control, the cell viability ([2]; myr-Akt2, 5000 nM, single replicates, 5 µM) was 74.8 % of control and 79.6 % of control and the EC50 ([2]; Mus musculus, read-out: CTG BaF3myr-Akt2, Mean, mean of replicates) was 4470 nM. For the same compound, the viability at 0.0001 µM ([2]; Mus musculus, read-out: cell viability, CTG, myr-Akt2, 0.1 nM, single replicates) was 105%, the viability at 5 µM ([2]; Mus musculus, read-out: cell viability, CTG, myr-Akt2, 5000 nM, single replicates) was 84.5% and the EC50 ([2]; read-out: CTG BaF3myr-Akt2, individual determinations, single replicates) was 6330 nM and 5560 nM and 1520 nM. The cell viability ([3]; myr-Akt3, 0.1 nM, single replicates, 0.0001 µM) was 105.8 % of control and 97.9 % of control, the cell viability ([3]; myr-Akt3, 5000 nM, single replicates, 5 µM) was 61.6 % of control and 92.9 % of control and 84.6 % of control and the EC50 ([3]; Mus musculus, read-out: CTG BaF3myr-Akt3, Mean, mean of replicates) was over 30000 nM. It also gave an EC50 ([3]; Mus musculus, read-out: CTG BaF3myr-Akt3, individual determinations, single replicates) of over 30000 nM, an EC50 ([3]; Mus musculus, read-out: EC50 BaF3myr-Akt3, CTG) of over 30000 nM and a viability at 0.0001 µM ([3]; Mus musculus, read-out: cell viability, CTG, myr-Akt3, 0.1 nM, single replicates) of 103%. The “Log ratio EC50 [Akt] / EC50 [Akt], Akt3 / Akt2” value [3, 13] was -0.83, the EC50 ([3]; read-out: CTG BaF3myr-Akt3, individual determinations, single replicates) was over 30000 nM and the tAkt3 % [4, 14] was 100.00%. For the same compound, the tAkt3 % [4, 15] was 53.46%, the tAkt3 % [4, 16] was 48.12% and the tAkt3 % [4, 17] was 46.68%. It also gave a tAkt3 % [4, 18] of 22.77%, a tAkt3 % [4, 19] of 21.02% and a tAkt3 % [4, 20] of 20.86%. For the same compound, the tAkt3 % [4, 21] was 9.30%, the tAkt3 % [4, 22] was 7.63% and the tAkt3 % [4, 23] was 0.00%. For the same compound, the tAkt3 % [4, 24] was 100.00%, the tAkt3 % [4, 25] was 12.48% and the tAkt3 % [4, 26] was 11.45%. It also gave a tAkt3 % [4, 27] of 15.32%, a tAkt3 % [4, 28] of 13.90% and a tAkt3 % [4, 29] of 14.16%. For the same compound, the tAkt3 % [4, 30] was 2.70%, the tAkt3 % [4, 31] was 0.26% and the tAkt3 % [4, 32] was 0.00%. For the same compound, the tAkt3 % [4, 33] was 0.00%, the viability at 3 days, 0.0001 µM ([5]; 0.1 nM, read-out: cell viability) was 100% and the viability at 3 days, 5 µM ([5]; 5000 nM) was 106%. For the same compound, the cell viability ([6]; 0.1 nM, single replicates, 0.0001 µM) was 107.4 % of control and 103.8 % of control, the cell viability ([6]; 5000 nM, single replicates, 5 µM) was 99.2 % of control and 101.9 % of control and the EC50 ([6]; Mus musculus, BaF3, parental cells, mean of replicates, read-out: CTG BaF3, Mean) was 6890 nM. The EC50 ([6]; Mus musculus, BaF3, parental cells, single replicates, read-out: CTG BaF3, individual determinations) was 7690 nM, the EC50 ([6]; parental cells, single replicates, read-out: CTG BaF3, individual determinations) was 6990 nM and 6000 nM and the IC50 ([7]; HTRF IC50 Akt2, Mean, mean of replicates) was 599 nM. The IC50 ([7]; HTRF IC50 Akt2, individual determinations, single replicates) was 658 nM and 512 nM and 626 nM, the IC50 ([7]; IC50 Akt2, HTRF, ATP at KM, 1 h preincubation) was 599 ± 63 nM and the “loss of activity for Akt2 compared to Akt1” value ([7]; biochemical IC50) was 10 fold. For the same compound, the cell viability ([8]; myr-Akt1, 0.1 nM, single replicates, 0.0001 µM) was 91.2 % of control and 96.3 % of control, the cell viability ([8]; myr-Akt1, 5000 nM, single replicates, 5 µM) was 6.7 % of control and 13.9 % of control and 18.5 % of control and the EC50 ([8]; Mus musculus, read-out: CTG BaF3myr-Akt1, Mean, mean of replicates) was 1790 nM. For the same compound, the viability at 0.0001 µM ([8]; Mus musculus, read-out: cell viability, CTG, myr-Akt1, 0.1 nM, single replicates) was 85.5%, the “Log ratio EC50 [Akt] / EC50 [Akt], Akt1 / Akt2” value [8, 13] was -0.40 and the EC50 ([8]; read-out: CTG BaF3myr-Akt1, individual determinations, single replicates) was 1190 nM and 1500 nM and 2670 nM. For the same compound, the “pAkt2 level (immunoblot)” value [9] was “downregulation of pAkt1 and pAkt2”, the IC50 ([10]; HTRF IC50 Akt3, individual determinations, single replicates) was 5630 nM and 8200 nM and 6050 nM and the IC50 ([10]; IC50 Akt3, HTRF, ATP at KM, 1 h preincubation) was 6630 ± 1130 nM. The “loss of activity for Akt3 compared to Akt1” value ([10]; biochemical IC50) was 100 fold, the tAkt1 % [11, 14] was 100.00% and the tAkt1 % [11, 15] was 101.52%. For the same compound, the tAkt1 % [11, 16] was 79.62%, the tAkt1 % [11, 17] was 74.15% and the tAkt1 % [11, 18] was 68.37%. For the same compound, the tAkt1 % [11, 19] was 51.95%, the tAkt1 % [11, 20] was 36.13% and the tAkt1 % [11, 21] was 22.45%. The tAkt1 % [11, 22] was 11.95%, the tAkt1 % [11, 23] was 0.00% and the tAkt1 % [11, 24] was 100.00%. It also gave a tAkt1 % [11, 25] of 88.73%, a tAkt1 % [11, 26] of 82.43% and a tAkt1 % [11, 27] of 73.59%. It also gave a tAkt1 % [11, 28] of 56.69%, a tAkt1 % [11, 29] of 2.43% and a tAkt1 % [11, 30] of 11.71%. For the same compound, the tAkt1 % [11, 31] was 5.41%, the tAkt1 % [11, 32] was 0.00% and the tAkt1 % [11, 33] was 0.00%. For the same compound, the “thermal stabilization of Akt1 (CETSA, in words)” value ([11]; PANC1, 0.3 µM) was “preferred stabilization of Akt1”, the “thermal stabilization of Akt1 (CETSA, in words)” value ([11]; PANC1, 1 µM) was “losing this selectivity” and the tAkt2 % [12, 14] was 100.00%. It also gave a tAkt2 % [12, 15] of 64.53%, a tAkt2 % [12, 16] of 56.84% and a tAkt2 % [12, 17] of 46.79%. For the same compound, the tAkt2 % [12, 18] was 50.34%, the tAkt2 % [12, 19] was 34.71% and the tAkt2 % [12, 20] was 11.57%. It also gave a tAkt2 % [12, 21] of 0.00%, a tAkt2 % [12, 22] of 3.97% and a tAkt2 % [12, 23] of 0.00%. The tAkt2 % [12, 24] was 100.00%, the tAkt2 % [12, 25] was 102.86% and the tAkt2 % [12, 26] was 75.10%. For the same compound, the tAkt2 % [12, 27] was 33.02%, the tAkt2 % [12, 28] was 70.90% and the tAkt2 % [12, 29] was 3.44%. It also gave a tAkt2 % [12, 30] of 7.92%, a tAkt2 % [12, 31] of -2.39% and a tAkt2 % [12, 32] of 37.12%. It also gave a tAkt2 % [12, 33] of 0.00%.
